The values that follow come from patent publication US20230144436A1, “MUSCLE TARGETING COMPLEXES AND USES THEREOF FOR TREATING MYOTONIC DYSTROPHY” (Dyne Therapeutics, Inc., priority 2020, published 2023).

As a reminder, the EC50 is the concentration at which the effect is half-maximal. Low values mean higher potency in that assay, high ones lower potency in that assay.

Data set [1] concerns DMPK. Briefly: Dose response of antisense oligonucleotides in DMPK knockdown in human DM1 myotubes. In kind it is cell-based. The text has this:
FIGS. 18A-18C depict non-limiting schematics showing the dose response of selected antisense oligonucleotides in DMPK knockdown in human DM1 myotubes. ControlDMPK-ASO was used as control. […] Statistical analysis: One-way ANOVA with Tukey's HSD post-hoc test vs. control DMPK-ASO treatment; *p<0.05, **p<0.01, ***p<0.001, ****p<0.0001.
(§1) The antisense oligonucleotides listed in Table 11 were further assessed to identify oligos that are safe in vivo (e.g., as indicated by low immunogenicity as measured by cytokine induction), and further based on manufacturability and secondary structure considerations. Three antisense oligonucleotides from Table 11, […] (SEQ ID NO: 310, DMPK-ASO-1), […] (SEQ ID NO: 320, DMPK-ASO-2), and […] (SEQ ID NO: 278, DMPK-ASO-3) were selected. These oligonucleotides were then further evaluated for their ability to reduce DMPK expression in DM1 myotubes and NHP myotubes in a dose-responsive manner. The tool compound (control DMPK-ASO) was used as control.

The subject of data set [2] is DMPK. Briefly: DMPK expression in RD cells treated with free or transfected DMPK-targeting oligonucleotides. In kind it is cell-based. As to conditions: free (gymnotic) or transfected, 3 days. How it is done: The duration of treatment was 3 days. DMPK-targeting oligonucleotides were delivered to the cells as free oligonucleotides (gymnotic uptake, “free”) or with transfection reagent (“trans”).
DMPK-targeting oligonucleotides (e.g., ASO) were tested in rhabdomyosarcoma (RD) cells for knockdown of DMPK transcript expression. RD cells were cultured in a growth medium of DMEM with glutamine, supplemented with 10% FBS and penicillin/streptomycin until nearly confluent. Cells were then seeded into a 96 well plate at 20K cells per well and were allowed to recover for 24 hours. Cells were then treated with free DMPK-targeting oligonucleotides or by transfection of the oligonucleotides using 0.3 μL per well of Lipofectamine MessengerMAX transfection reagent. After 3 days, total RNA was collected from cells, cDNA was synthesized and DPMK expression was measured by qPCR.

Data set [3] concerns DMPK. Kind of data set: Dose response of antisense oligonucleotides in DMPK knockdown in NHP myotubes. The format is cell-based, non-human primate.
Text: FIGS. 19A-19B depict non-limiting schematics showing the dose response of selected antisense oligonucleotides in DMPK knockdown in non-human primate (NHP) DM1 myotubes. Control DMPK-ASO was used as control.
as §1

Data set [4] deals with mouse muscle tissue. As to conditions: cited from earlier work.
Data set [5] relates to C2C12 murine myotubes. As to conditions: in vitro, phage display; cited from earlier work.
The test system of data set [6] is DMPK. Briefly: Dose-responsive DMPK reduction in DM1 C15 myotubes (EC-50). The format is cell-based. The conditions noted are these: DM1 C15 differentiated myotubes, 72 hours; for EC50: transfection with Lipofectamine MessengerMax, 0.046-100 nM; for Percent DMPK reduction at 100 nM: transfection. As to the method: Eighteen oligonucleotides from Example 7 were selected to be evaluated for their ability to reduce DMPK expression in a dose-responsive manner. DM1 C15 myoblasts were prepared as in Example 7 to yield differentiated myotubes in 96-well microplates. After seven days of differentiation, cells were transfected with individual oligonucleotides using Lipofectamine MessengerMax. Each oligonucleotide was tested in triplicate at concentrations of 0.046 nM, 0.137 nM, 0.412 nM, 1.235 nM, 3.704 nM, 11.11 nM, 33.33 nM, and 100 nM by 3-fold serial dilutions using 0.3 μL of Lipofectamine MessengerMax per well.
Following addition of oligonucleotide, cells were incubated for 72 hours prior to harvesting for total RNA. cDNA was synthesized from the total RNA extracts and qPCR was performed to determine expression levels of DMPK using a commercially available Taqman probeset in technical quadruplicate. All qPCR data were analyzed using a traditional ΔΔCT method and were normalized to a plate-based negative control that comprised of cells treated with vehicle control (0.3 μL/well Lipofectamine MessengerMax without any oligonucleotide). Data for each oligonucleotide to was fit to sigmoidal curve in order to determine an effective concentration of each oligonucleotide that provided a half-maximal response (EC-50).

The test system of data set [7] is DMPK. Kind of data set: DMPK knockdown by transfected antisense oligonucleotides in DM1 C15 myotubes at 0.5 nM and 50 nM. The format is cell-based. As to conditions: 72 hours, qPCR; for Percent DMPK Reduction: relative to vehicle control; for Normalized DMPK Remaining: relative to vehicle control = 1.00. In a few lines:
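Seven-day-differentiated DM1 C15 myotubes transfected (Lipofectamine MessengerMax) with each oligonucleotide at 0.5 nM or 50 nM final, biological triplicates. After 72 h, DMPK mRNA quantified by qPCR, expressed relative to vehicle-only transfection set to 1.00.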

“CCCAGCGCCCACCAGUCACA (chemistry not given here) [SEQ ID NO: 320, DMPK-targeting antisense oligonucleotide]”: the “DMPK knockdown in DM1 myotubes” value in data set [1] is “dose-dependently reducing DMPK”. For the same substance, the “DMPK expression level relative to PBS-treated cells” value in data set [2] is “reduced”. The “DMPK knockdown in NHP myotubes” value in data set [3] is given as “dose-dependently reducing DMPK”.

Consider “ASSLNIA [muscle-specific heptapeptide identified by phage display]”, for which the “specificity for binding to heart and skeletal muscle tissue” value in data set [4] (after intravenous injection in mice, reduced binding to liver, kidney, and brain) was “improved specificity for binding to heart and skeletal muscle tissue”. Also, the “binding to mouse muscle tissue” value in data set [4] (in vivo) was “bound to mouse muscle tissue in vivo”. For the same substance, the “binding to C2C12 cells” value in data set [5] is listed as “bound to C2C12 murine myotubes in vitro”.

For “313 (GGACGAUCUUGCCAUAGGUC; chemistry not given here) [compound 313]”, in data set [6], a half-maximal effect (EC50) was put at 3.59 nM and the “Percent DMPK reduction at 100 nM” value was 92.18%. For the same substance, in data set [7] (0.5 nM oligonucleotide), the “Percent DMPK Reduction” value is 29.82% and the “Normalized DMPK Remaining” value worked out at 0.70. Further, in data set [7] (50 nM oligonucleotide), the “Percent DMPK Reduction” value is recorded as 48.97% and the “Normalized DMPK Remaining” value is 0.51.

As for “346 (GACAGAACAACGGCGAACAG; chemistry not given here) [compound 346]”, in data set [6], it took 0.08 nM to reach a half-maximal effect (EC50) and the “Percent DMPK reduction at 100 nM” value was found to be 94.32%. Moreover, in data set [7] (0.5 nM oligonucleotide), the “Percent DMPK Reduction” value is recorded as 21.41% and the “Normalized DMPK Remaining” value was determined as 0.79. Besides, in data set [7] (50 nM oligonucleotide), the “Percent DMPK Reduction” value came to 70.49% and the “Normalized DMPK Remaining” value was 0.30.

In the case of “CCAUCUCGGCCGGAAUCCGC (chemistry not given here) [SEQ ID NO: 278, DMPK-targeting antisense oligonucleotide]”, in data set [1], the “DMPK knockdown in DM1 myotubes” value was “dose-dependently reducing DMPK”. Further, the “DMPK expression level relative to PBS-treated cells” value in data set [2] is “reduced”. Also, the “DMPK knockdown in NHP myotubes” value in data set [3] is “dose-dependently reducing DMPK”.

As for “260 (CGAAUGUCCGACAGUGUCUC; chemistry not given here) [compound 260]”, in data set [6], the EC50 came to 0.18 nM and the “Percent DMPK reduction at 100 nM” value was found to be 95.93%. Besides, in data set [7] (0.5 nM oligonucleotide), the “Percent DMPK Reduction” value is 40.21% and the “Normalized DMPK Remaining” value worked out at 0.60. Besides, in data set [7] (50 nM oligonucleotide), the “Percent DMPK Reduction” value is 64.42% and the “Normalized DMPK Remaining” value is given as 0.36.

For “316 (AGCAGGAUGUUGUCGGGUUU; chemistry not given here) [compound 316]”, in data set [6], the EC50 was determined as 0.227 nM and the “Percent DMPK reduction at 100 nM” value stood at 85.81%. For the same substance, in data set [7] (0.5 nM oligonucleotide), the “Percent DMPK Reduction” value is 41.05% and the “Normalized DMPK Remaining” value was 0.59. Also, in data set [7] (50 nM oligonucleotide), the “Percent DMPK Reduction” value is 74.02% and the “Normalized DMPK Remaining” value is reported as 0.26.

Take “293 (GAAUGUCCGACAGUGUCUCC; chemistry not given here) [compound 293]”: in data set [6], the EC50 was 0.07 nM and the “Percent DMPK reduction at 100 nM” value is recorded as 97.23%. Moreover, in data set [7] (0.5 nM oligonucleotide), the “Percent DMPK Reduction” value is listed as 30.09% and the “Normalized DMPK Remaining” value is reported as 0.70. In addition, in data set [7] (50 nM oligonucleotide), the “Percent DMPK Reduction” value came out at 63.41% and the “Normalized DMPK Remaining” value was determined as 0.37.

On to “301 (UGUUGUCGGGUUUGAUGUCC; chemistry not given here) [compound 301]”, for which, in data set [6], the EC50 stood at 0.21 nM and the “Percent DMPK reduction at 100 nM” value worked out at 93.95%. Further, in data set [7] (0.5 nM oligonucleotide), the “Percent DMPK Reduction” value was determined as 21.00% and the “Normalized DMPK Remaining” value was found to be 0.79. Also, in data set [7] (50 nM oligonucleotide), the “Percent DMPK Reduction” value amounted to 42.19% and the “Normalized DMPK Remaining” value is on record as 0.58.

Take “362 (GCUGUCCCGGAGACCAUCCC; chemistry not given here) [compound 362]”: in data set [6], the EC50 was found to be 3.27 nM and the “Percent DMPK reduction at 100 nM” value came out at 93.07%. Also, in data set [7] (0.5 nM oligonucleotide), the “Percent DMPK Reduction” value was found to be 22.57% and the “Normalized DMPK Remaining” value stood at 0.77. Besides, in data set [7] (50 nM oligonucleotide), the “Percent DMPK Reduction” value was found to be 66.27% and the “Normalized DMPK Remaining” value is recorded as 0.34.

On to “299 (GCAGGAUGUUGUCGGGUUUG; chemistry not given here) [compound 299]”, for which, in data set [6], the EC50 is 0.168 nM and the “Percent DMPK reduction at 100 nM” value was found to be 89.77%. Besides, in data set [7] (0.5 nM oligonucleotide), the “Percent DMPK Reduction” value turned out to be 44.39% and the “Normalized DMPK Remaining” value is recorded as 0.56. In data set [7] (50 nM oligonucleotide), the “Percent DMPK Reduction” value came to 78.03% and the “Normalized DMPK Remaining” value is reported as 0.22.

Take “280 (UUGCCAUAGGUCUCCGCCGU; chemistry not given here) [compound 280]”: in data set [6], the midpoint of the response, the EC50, lay at 0.37 nM and the “Percent DMPK reduction at 100 nM” value is 93.70%. Besides, in data set [7] (0.5 nM oligonucleotide), the “Percent DMPK Reduction” value is given as 36.30% and the “Normalized DMPK Remaining” value stood at 0.64. Further, in data set [7] (50 nM oligonucleotide), the “Percent DMPK Reduction” value was determined as 60.12% and the “Normalized DMPK Remaining” value is recorded as 0.40.

Consider “SKTFNTHPQSTP [12 amino acid muscle-targeting peptide identified by phage display]”, for which the “binding to C2C12 cells” value in data set [5] is “improved binding to C2C12 cells relative to the ASSLNIA”.

As to “294 (CGUUCCAUCUGCCCGCAGCU; chemistry not given here) [compound 294]”, in data set [6], the EC50 came out at 0.19 nM and the “Percent DMPK reduction at 100 nM” value was 89.97%. For the same substance, in data set [7] (0.5 nM oligonucleotide), the “Percent DMPK Reduction” value came to 33.74% and the “Normalized DMPK Remaining” value is listed as 0.66. Also, in data set [7] (50 nM oligonucleotide), the “Percent DMPK Reduction” value was 68.72% and the “Normalized DMPK Remaining” value was determined as 0.31.

On to “320 (CCCAGCGCCCACCAGUCACA; chemistry not given here) [compound 320]”, for which, in data set [6], the EC50 was 5.45 nM and the “Percent DMPK reduction at 100 nM” value is 63.69%. For the same substance, in data set [7] (0.5 nM oligonucleotide), the “Percent DMPK Reduction” value is 37.93% and the “Normalized DMPK Remaining” value was 0.62. In addition, in data set [7] (50 nM oligonucleotide), the “Percent DMPK Reduction” value is given as 67.82% and the “Normalized DMPK Remaining” value is recorded as 0.32.

Regarding “310 (GCGUAGAAGGGCGUCUGCCC; chemistry not given here) [compound 310]”, in data set [6], the EC50 was 24.6 nM and the “Percent DMPK reduction at 100 nM” value is reported as 95.13%. For the same substance, in data set [7] (0.5 nM oligonucleotide), the “Percent DMPK Reduction” value is 39.53% and the “Normalized DMPK Remaining” value was determined as 0.60. In data set [7] (50 nM oligonucleotide), the “Percent DMPK Reduction” value worked out at 77.91% and the “Normalized DMPK Remaining” value is listed as 0.22.

With “GCGUAGAAGGGCGUCUGCCC (chemistry not given here) [SEQ ID NO: 310, DMPK-targeting antisense oligonucleotide]”, the “DMPK knockdown in DM1 myotubes” value in data set [1] is recorded as “dose-dependently reducing DMPK”. Besides, the “DMPK expression level relative to PBS-treated cells” value in data set [2] was “reduced”. Besides, the “DMPK knockdown in NHP myotubes” value in data set [3] is reported as “dose-dependently reducing DMPK”.
